Assay results taken from US5885988A, “Benzo[g]quinoline derivatives” (Novartis AG, priority 1995, dated 1999).

Key:
rat sst1 receptors = rat sst1 receptors (Rattus norvegicus, UniProt P28646); experiment: radioligand binding, rat sst1 receptors; conditions: read-out: affinity for rat sst1 receptors, pIC50 (converted)
From the text: (§1) In particular the agents of the invention bind to somatostatin receptors.
(§2) For all the above indications the preferred compound is [3R,4aR,10aR]-1,2,3,4,4a,5,10, 10a-octahydro-6-methoxy-1 -methyl-benzo[g]quinoline-3-carboxylic acid 4-(4-nitro-phenyl)-piperazine amide, which is the compound of example 1.

[1] = molecular target: T1, recombinant human sst1 receptors (Homo sapiens, UniProt P30872); experiment: radioligand binding, recombinant human sst1 receptors; conditions: read-out: affinity for recombinant human sst1 receptors, pIC50 (converted)
T1 construct: expressed in transfected cells
From the text: as §1, §2

[2] = test system: neurotransmitter receptors; experiment: activity at a wide range of neurotransmitter receptors; type: binding
From the text: as §2

intruder mouse test = type: in vivo; conditions: for social withdrawal in the intruder mouse test, standard anti-manic drugs: 3-30 mg/kg s.c.
From the text: as §2

[3] = Matched Pairs Situation test; type: in vivo, mice; conditions: for potency compared with the compound of example 1: Matched Pairs Situation test and intruder mouse test, 3-30 mg/kg s.c. versus 1-10 mg/kg s.c.
From the text: Furthermore at said doses the compounds of the invention reduce aggressive behavior (attacks, chases, bites) in the Matched Pairs Situation test in mice [Dixon et al., J. Clin. Psychiatry 55: (9) [Suppl. B] 4-7 (1994)]. […] They are therefore indicated for the treatment of affective disorders including bipolar disorders e.g. manic-depressive psychoses, extreme psychotic states e.g. mania, schizophrenia, and excessive mood swings where behavioral stabilization is desired. In addition, the compounds are indicated in anxiety states, generalized anxiety as well as social and agoraphobia, as well as those behavioural states characterized by social withdrawal e.g. negative symptoms.
as §2

Sequence of rat sst1 receptors (P28646 whole entry): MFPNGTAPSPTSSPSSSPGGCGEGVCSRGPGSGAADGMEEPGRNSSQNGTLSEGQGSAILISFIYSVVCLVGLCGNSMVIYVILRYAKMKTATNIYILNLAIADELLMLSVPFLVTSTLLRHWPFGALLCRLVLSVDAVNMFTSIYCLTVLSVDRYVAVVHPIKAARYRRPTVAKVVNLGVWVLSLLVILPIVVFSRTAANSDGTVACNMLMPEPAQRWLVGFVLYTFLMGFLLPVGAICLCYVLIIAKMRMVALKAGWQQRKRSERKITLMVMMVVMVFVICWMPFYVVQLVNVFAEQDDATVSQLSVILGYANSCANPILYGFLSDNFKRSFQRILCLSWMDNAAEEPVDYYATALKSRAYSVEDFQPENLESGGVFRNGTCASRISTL
T1 sequence (P30872 whole entry): as the sequence (P28646 whole entry) above, with P8S, T11S, S16P, G20S, V25G, C26G, S32A, S45A, A385T, S389T counted along it

SMILES | IC50 (rat sst1 receptors) [nM] | IC50 [1] [nM] | activity for a wide range of neurotransmitter receptors [2] | social withdrawal in the intruder mouse test (intruder mouse test; 1-10 mg/kg s.c.) | aggressive behavior in the Matched Pairs Situation test ([3]; 1-10 mg/kg s.c.) | social withdrawal in the intruder mouse test, standard anti-manic drugs (intruder mouse test) | potency compared with the compound of example 1 [3]
COc1cccc2c1C[C@H]1C[C@@H](C(=O)N3CCN(c4ccc([N+](=O)[O-])cc4)CC3)CN(C)[C@@H]1C2 [Example 1, [3R,4aR,10aR]-1,2,3,4,4a ,5,10,10a-octahydro-6-methoxy-1-methyl-benzo[g]quinoline-3-carboxylic acid 4-(4-nitro-phenyl)-piperazine amide] | 0.794 | 20 | without significant activity | reverses social withdrawal | clearly lowers aggressive behavior | – | –
NC(=O)N1c2ccccc2C=Cc2ccccc21 [carbamazepine] | – | – | – | – | – | These effects are also observed | less potent
[Li] [lithium] | – | – | – | – | – | These effects are also observed | less potent
